Experimental data taken from US12653840B2, “Methods for production of platelets from pluripotent stem cells and compositions thereof” (Astellas Institute for Regenerative Medicine, priority 2012, dated 2026).
Entries after “also recorded” stand apart in the source; their conditions may differ.

Columns and labels:
[1] = system: MKs derived from HA-iPS; assay: Platelet generation from MKs under constant shear force in a microfluidic device; type: cell-based, human
Procedure: Matured MKs, derived from HA-iPS and MA09 hES lines, were used. Equal numbers of MKs suspended in MK-specific medium were loaded into a microfluidic device in the presence or absence of 20 μM MMP inhibitor GM6001. Constant shear force was applied to the MKs throughout the culture period. MK-medium downstream of MKs was collected at 30 minute intervals for a period of 6 hours. Platelet number and purity (i.e., percentage of total cells that are CD41a^+CD42b^+) in the collected media were measured using flow cytometer.
FIGS. 22-24 provide the results of platelet generation from MKs derived from HA-iPS. The platelets were generated under a constant shear force defined by a flow rate of […] μl/min. […] Purity is expressed at the percentage of total harvested cells that are CD41a+CD42b+.

[2] = system: CD42b; details: reported; cited from earlier work
[3] = system: iPS derived megakaryocytes; assay: Platelet formation in static culture with MMP inhibitors; type: cell-based, human
Excerpt: FIG. 27. Platelet purity as a result of static culture in the presence of MMP8 specific inhibitor MMP8-I (second bar), pan-MMP inhibitor GM6001 (third bar), or the combination of MMP8-I and GM6001 (fourth bar). The MMP8-I is (3R)-(+)-[2-(4-Methoxybenzenesulfonyl)-1,2,3,4-tetrahydroisoquinoline-3-hydroxamate], and it is commercially available from Millipore. The first bar is the control.
FIG. 28. Platelets numbers as a result of static culture in the presence of MMP8 specific inhibitor MMP8-I (second bar), pan MMP inhibitor GM6001 (third bar), or the combination of MMP8-I and GM6001 (fourth bar). The first bar is the control.
The peak of platelet production is determined by measuring platelet content in the culture, for example on a daily basis for several days. It is typically 4-7 days after the beginning of the MLP differentiation culture period, although it may be longer or it may be shifted.

[4] = system: cells undergoing in vitro megakaryopoiesis; assay: iBET-151 in PVE-HE to MLP differentiation culture, harvest at day 6+4; type: cell-based, human
Procedure: Megakaryocyte progenitor (MLP) numbers harvested at day 6+4 (i.e., day 10 of differentiation) as a function of increasing dose of iBET-151 (in μM). iBET is added to the culture at the 6+3 day time frame, and MLPs are exposed to iBET for a period of about 24 hours prior to their harvest. iBET concentrations: 0 (left bar), 0.1 microM (middle bar), 0.25 microM (right bar). […] CD14+ cell purity in cell population harvested at day 6+4 as a function of increasing dose of iBET-151. iBET concentrations: 0 (left bar), 0.1 microM (middle bar), 0.25 microM (right bar).

[5] = system: GATA-1; assay: Relative quantitative mRNA analysis on day 6+4; type: cell-based, human; details: 0.1 and 0.25 microM
Excerpt: (§1) FIG. 32. Relative quantitative analysis of mRNA of c-myc and GATA-1 on day 6+4 as a function of increasing dose of iBET-151. iBET concentrations: 0 (left bar), 0.1 microM (middle bar), 0.25 microM (right bar) for each triplet.

[6] = system: c-myc; assay: Relative quantitative mRNA analysis on day 6+4; type: cell-based, human; details: 0.1 and 0.25 microM
Excerpt: as §1

[7] = system: human and murine MLL-fusion leukemic cell lines; details: through induction of early cell cycle arrest and apoptosis; cited from earlier work
[8] = system: developing mouse platelet thrombus; assay: In vivo thrombus formation after laser-induced cremaster arteriolar wall injury, intravital microscopy; parameters: species or system macrophage-depleted NOD/SCID mice; details: platelets pretreated with ReoPro
Procedure: Third, hiPSC-PLTs were analyzed for functionality using an in vivo assay system measuring thrombus formation in macrophage-depleted NOD/SCID mice. Briefly, intravital microscopy of cremaster muscle arterioles was performed as previously described (Cell Research 2011 21:530-45). Macrophage-depleted NOD/SCID mice were anesthetized by intraperitoneal injection of ketamine (125 mg/kg) and xylazine (25 mg/kg). A tracheal tube was inserted and the mouse was placed on a thermo-controlled blanket. After incision of the scrotum, the cremaster muscle was exteriorized onto an intravital microscopy tray. The muscle preparation was superfused with thermo-controlled (37° C.) and aerated (95% N2, 5% CO2) bicarbonate-buffered saline throughout the experiment. The cremaster muscle arteriolar wall was injured by micropoint laser ablation using a Micropoint Laser System (Photonics Instruments). […] Fluorescence and brightfield images were recorded using an Olympus BX61W microscope with a 60 x/1.0 NA water immersion objective and a high speed camera (Hamamatsu C9300) through an intensifier (Video Scope International). Data were collected for 5 min following vessel wall injury and analyzed using Slidebook v5.0 (Intelligent Imaging Innovations).

CNC(=O)[C@H](Cc1c[nH]c2ccccc12)NC(=O)[C@@H](CC(=O)NO)CC(C)C [GM6001]
platelet purity (percentage of total harvested cells that are CD41a+CD42b+) ([1]; 20 μM, added at beginning of culture, constant shear force, vs DMSO): significantly improved | platelet yield / platelet numbers ([1]; 20 μM, constant shear force, vs DMSO): significantly improved; also recorded: significantly more platelets | CD42b shedding from platelets [2]: inhibit CD42b shedding

COc1ccc(S(=O)(=O)N2Cc3ccccc3C[C@@H]2C(=O)NO)cc1 [MMP8 specific inhibitor, (3R)-(+)-[2-(4-Methoxybenzenesulfonyl)-1,2,3,4-tetrahydroisoquinoline-3-hydroxamate]]
purity of iPS-derived platelets (CD41a+CD42b+) ([3]; added at peak of platelet production of MKs, static culture, control 43.7%): 65.5% | potency in protecting platelet function ([3]; comparative study of several specific MMP inhibitors): more potency than GM6001 | CD41a+CD42b+ platelets produced, compared to GM6001 ([3]; static culture): Significantly more | purity, more than obtained from GM6001-treated cultures ([3]; static culture): approximately 10%

COc1cc2c(cc1-c1c(C)noc1C)ncc1[nH]c(=O)n([C@H](C)c3ccccn3)c12 [i-BET-151]
number of CD14+ myeloid cells ([4]; 0.1 and 0.25 microM, day 6+4): dose-dependent decrease | apoptosis ([4]; high dose): triggers massive apoptosis | numbers of MK progenitors ([4]; lower doses in the micromolar (or submicromolar) range, 0.1 and 0.25 microM, about 24 hours): increased numbers | GATA1 gene expression (mRNA) [5]: up-regulated | c myc gene expression (mRNA) [6]: dose:-dependent inhibition | efficacy against MLL-fusion leukemic cell lines [7]: profound efficacy

dextran
platelet formation ([1]; 8% dextran added to increase viscosity of culture medium, with GM6001, shear force): negative impact

B1: ReoPro: Fab fragment of a human-murine chimeric monoclonal antibody that binds specifically to αIIbβIII and inhibits platelet function (antibody, chains of the INN, looked up, V domains shown)
VH: EVQLQQSGTVLARPGASVKMSCEASGYTFTNYWMHWVKQRPGQGLEWIGAIYPGNSDTSYIQKFKGKAKLTAVTSTTSVYMELSSLTNEDSAVYYCTLYDGYYVFAYWGQGTLVTVSA
VL: EIVLTQSPVTLSVTPGDSVSLSCRASRDISNNLHWFQQTSHESPRLLIKYASQSMSGIPSRFSGSGSGTDFTLSINSVETEDFGMYFCQQTNSWPYTFGGGTKLEIK
modifications: Fab
number of platelets bound to / incorporating in the thrombus after ReoPro pretreatment [8]: inhibited; also recorded: markedly reduced
